In patent US10000471B2, “Pyrazole P38 map kinase inhibitors” (Respivert Limited, priority 2010, dated 2018):

Experiments:
[1] = test system: TNFα release in THP-1 cells; assay: LPS-induced TNFα release in THP-1 cells; assay type: cell-based, human; conditions: Homo sapiens
Experimental: LPS-Induced TNFα Release in THP-1 Cells
THP-1 cells, a human monocytic cell line, were stimulated with 3 μg/mL of LPS (from E. Coli; 0111:B4, Sigma) for 4 hr and the supernatant collected for determination of the TNFα concentration by sandwich ELISA (Duo-set, R&D systems). The inhibition of TNFα production was calculated at each concentration by comparison with vehicle control. The 50% inhibitory concentration (IC50) was determined from the resultant concentration-response curve.

[2] = test system: ICAM-1 induction in BEAS2B cells; assay: Poly I:C-induced ICAM-1 induction in BEAS2B cells; assay type: cell-based, human; conditions: Homo sapiens, BEAS-2B, read-out: PolyIC/ICAM1 IC50 BEAS2B
Experimental: Poly I:C-Induced ICAM-1 Induction in BEAS2B Cells
Poly I:C (1 μg/mL) (Invivogene Ltd., San Diego, Calif.) was transfected into BEAS2B cells (human bronchial epithelial cells, ATCC) with Oligofectamine (Invitrogen, Carlsbad, Calif.). Cells were pre-incubated with final concentrations of test compounds for 2 hr and the level of ICAM1 expression on the cell surface was determined by cell-based ELISA. At a time point 18 hr after poly I:C transfection, cells were fixed with 4% formaldehyde in PBS and then endogenous peroxidase was quenched by the addition of 0.1% sodium azide and 1% hydrogen peroxide. Cells were washed with wash-buffer (0.1% Tween in PBS: PBS-Tween). and after blocking the wells with 5% milk in PBS-Tween for 1 hr, the cells were incubated with anti-human ICAM-1 antibody (Cell Signaling Technology, Danvers, Mass.) in 1% BSA PBS overnight at 4° C. The cells were washed with PBS-Tween and incubated with the secondary antibody (HRP-conjugated anti-rabbit IgG, Dako Ltd., Glostrup, Denmark). The ICAM-1 signal was detected by adding substrate and reading the absorbance at 450 nm against a reference wavelength of 655 nm using a spectrophotometer. The cells were then washed with PBS-Tween and total cell numbers in each well were determined by reading absorbance at 595 nm after Crystal Violet staining and elution by 1% SDS solution. The measured OD 450-655 readings were corrected for cell number by dividing with the OD595 reading in each well. The inhibition of ICAM-1 expression was calculated at each concentration of test compound by comparison with vehicle control. The 50% inhibitory concentration (IC50) was determined from the resultant concentration-response curve.

[3] = test system: IL-8 release in d-U937 cells; assay: LPS-induced IL-8 release in d-U937 cells; assay type: cell-based, human; conditions: Homo sapiens, dU937
Experimental: (§1) LPS-Induced TNFα/IL-8 Release in d-U937 Cells
(§2) U937 cells, a human monocytic cell line, were differentiated to macrophage-type cells by incubation with phorbol myristate acetate (PMA; 100 ng/ml) for 48 to 72 hr. Cells were pre-incubated with final concentrations of test compound for 2 hr and were then stimulated with 0.1 μg/mL of LPS (from E. Coli: O111:B4, Sigma) for 4 hr. The supernatant was collected for determination of TNFα and IL-8 concentrations by sandwich ELISA (Duo-set, R&D systems). The inhibition of TNFα production was calculated as a percentage of that achieved by 10 μg/mL of BIRB796 at each concentration of test compound by comparison against vehicle control. The relative 50% effective concentration (REC50) was determined from the resultant concentration-response curve. The inhibition of IL-8 production was calculated at each concentration of test compound by comparison with vehicle control. The 50% inhibitory concentration (IC50) was determined from the resultant concentration-response curve.

[4] = target: T1, p38 MAPKα isoform (MAPK14) (Homo sapiens, UniProt Q16539); assay: Enzyme inhibition assay (FRET, Z-LYTE), p38 MAPKα via MAPKAP-K2 activation; assay type: biochemical; conditions: read-out: Enzyme Inhibition IC50 p38α
T1 construct: purchased Invitrogen
Experimental: (§3) The enzyme inhibitory activities of compounds disclosed herein were determined by fluorescence resonance energy transfer (FRET) using synthetic peptides labelled with both donor and acceptor fluorophores (Z-LYTE, Invitrogen Ltd., Paisley, UK). Recombinant, phosphorylated p38 MAPKγ (MAPK12:Invitrogen) was diluted in HEPES buffer, mixed with the test compound at the desired final concentrations and incubated for 2 hr at RT. The FRET peptide (2 μM) and ATP (100 μM) were added to the enzyme/compound mixture and incubated for 1 hr. Development reagent (protease) was added for 1 hr prior to detection in a fluorescence microplate reader (Varioskan® Flash, ThermoFisher Scientific). The site-specific protease cleaves non-phosphorylated peptide only and eliminates the FRET signal. Phosphorylation levels of each reaction were calculated using the ratio of coumarin emission (donor) over fluorescein emission (acceptor) for which high ratios indicate high phosphorylation and low ratios indicate low phosphorylation levels. The percentage inhibition of each reaction was calculated relative to non-inhibited control and the 50% inhibitory concentration (IC50 value) then calculated from the concentration-response curve.
For the p38 MAPKα isoform (MAPK14: Invitrogen), enzyme activity was evaluated indirectly by determining the level of activation/phosphorylation of the down-stream molecule, MAPKAP-K2. The p38 MAPKα protein was mixed with the test compound for 2 hr at RT. […] Development reagent was then added and the mixture incubated for 1 hr before detection by fluorescence completed the assay protocol.

[5] = test system: Differentiated U937 cells; assay: Cell viability MTT assay; assay type: cell-based, human; conditions: negative = apparent increase in viability; for MTT Assay (Viability) 4 h d-U937, percentage loss of cell viability: 4 hr in 5% FCS; for MTT Assay (Viability) 24 h d-U937, percentage loss of cell viability: 24 h in 10% FCS
Experimental: Differentiated U937 cells were pre-incubated with each test compound under two protocols: the first for 4 hr in 5% FCS and the second in 10% FCS for 24 h. The supernatant was replaced with 200 μL of new media and 10 μL of MTT stock solution (5 mg/mL) was added to each well. After incubation for 1 hr the media were removed, 200 μL of DMSO was added to each well and the plates were shaken lightly for 1 hr prior to reading the absorbance at 550 nm. The percentage loss of cell viability was calculated for each well relative to vehicle (0.5% DMSO) treatment. Consequently an apparent increase in cell viability for drug treatment relative to vehicle is tabulated as a negative percentage.

[6] = test system: TNFα release in d-U937 cells; assay: LPS-induced TNFα release in d-U937 cells; assay type: cell-based, human; conditions: Homo sapiens, dU937, relative to 10 μg/mL BIRB796, read-out: LPS/TNFα REC50 d-U937
Experimental: as §1, §2

p38 MAPKγ (MAPK12) = target: T2, p38 MAPKγ (MAPK12) (Homo sapiens, UniProt P53778); assay: Enzyme inhibition assay (FRET, Z-LYTE), p38 MAPKγ; assay type: biochemical; conditions: read-out: Enzyme Inhibition IC50 p38γ
T2 construct: purchased Invitrogen
T2 sequence (P53778 1-367): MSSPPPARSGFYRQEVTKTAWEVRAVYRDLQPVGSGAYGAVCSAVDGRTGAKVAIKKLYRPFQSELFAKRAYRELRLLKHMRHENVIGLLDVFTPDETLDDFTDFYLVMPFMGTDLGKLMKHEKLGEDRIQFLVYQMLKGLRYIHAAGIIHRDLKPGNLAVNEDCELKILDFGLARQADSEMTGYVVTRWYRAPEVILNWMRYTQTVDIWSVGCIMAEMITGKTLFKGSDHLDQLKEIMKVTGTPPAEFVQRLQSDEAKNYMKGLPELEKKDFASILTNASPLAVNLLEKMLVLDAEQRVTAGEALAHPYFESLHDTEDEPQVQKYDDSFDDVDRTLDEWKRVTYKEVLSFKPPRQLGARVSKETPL
Experimental: as §3

T1 sequence (Q16539 whole entry, canonical isoform): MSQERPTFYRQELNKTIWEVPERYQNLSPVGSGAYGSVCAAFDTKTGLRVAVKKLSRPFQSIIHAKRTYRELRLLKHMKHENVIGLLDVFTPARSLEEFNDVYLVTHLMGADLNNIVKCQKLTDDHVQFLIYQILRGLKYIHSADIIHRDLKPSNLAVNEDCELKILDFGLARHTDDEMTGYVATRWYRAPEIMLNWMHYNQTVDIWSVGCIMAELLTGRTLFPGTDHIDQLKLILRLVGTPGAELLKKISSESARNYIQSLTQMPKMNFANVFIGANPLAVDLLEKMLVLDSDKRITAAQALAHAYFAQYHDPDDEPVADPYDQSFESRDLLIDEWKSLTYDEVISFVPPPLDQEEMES

Compound | IC50 [1] [nM] | IC50 [3] [nM] | IC50 [4] [nM] | EC50 [6] [nM] | IC50 (p38 MAPKγ (MAPK12)) [nM] | IC50 [2] [nM] | MTT Assay (Viability) 4 h d-U937, percentage loss of cell viability [5] [%] | MTT Assay (Viability) 24 h d-U937, percentage loss of cell viability [5] [%]
COCC(=O)Nc1cc(Oc2ccc(NC(=O)Nc3cc(C(C)(C)C)nn3-c3ccc(C)cc3)cc2Br)ccn1 [Example 33, N-(4-(2-bromo-4-(3-(3-tert-butyl-1-p-tolyl-1H-pyrazol-5-yl)ureido)phenoxy)pyridin-2-yl)-2-methoxyacetamide] | 1.5 | 4.8 | 25.3 | 6.4 | 59.7 | 3 | −12.6 | 68.9
COCC(=O)Nc1cc(Oc2ccc(NC(=O)Nc3cc(C(C)(C)C)nn3-c3ccc(C)cc3)c(C(F)(F)F)c2)ccn1 [Example 3, N-(4-(4-(3-(3-tert-Butyl-1-p-tolyl-1H-pyrazol-5-yl)ureido)-3-(trifluoromethyl)phenoxy)pyridin-2-yl)-2-methoxyacetamide] | 1 | 41.2 | 5.1 | 1.1 | 175 | 24.4 | 3.4 | 22.9
COCC(=O)Nc1cc(Oc2ccc(NC(=O)Nc3cc(C(C)(C)C)nn3-c3ccc(C)cc3)cc2C(F)(F)F)ccn1 [Example 30, N-(4-(4-(3-(3-tert-butyl-1-p-tolyl-1H-pyrazol-5-yl)ureido)-2-trifluoromethylphenoxy)pyridin-2-yl)-2-methoxyacetamide] | 1.3 | 6.5 | 164 | 2.5 | 152 | 6.9 | 3.3 | 61.6
COCC(=O)Nc1cc(Oc2ccc(NC(=O)Nc3cc(C(C)(C)C)nn3-c3ccc(C)cc3)c(Cl)c2Cl)ncn1 [Example 89, N-(6-(4-(3-(3-tert-butyl-1-p-tolyl-1H-pyrazol-5-yl)ureido)-2,3-dichlorophenoxy)pyrimidin-4-yl)-2-methoxyacetamide] | 1.7 | 13.4 | 58.8 | 0.3 | 175 | 1.8 | −49.9 | −7.5

More lines, main results first:

IC50 [1] [nM] | IC50 [3] [nM] | IC50 [4] [nM] | EC50 [6] [nM] | IC50 (p38 MAPKγ (MAPK12)) [nM] | Compound | IC50 [2] [nM] | MTT Assay (Viability) 4 h d-U937, percentage loss of cell viability [5] [%] | MTT Assay (Viability) 24 h d-U937, percentage loss of cell viability [5] [%]
8.6 | 4.6 | 52.4 | 0.9 | 194 | CNC(=O)Nc1cc(Oc2ccc(NC(=O)Nc3cc(C(C)(C)C)nn3-c3ccc(C)cc3)c3ncccc23)ccn1 [Example 56, 1-(3-tert-butyl-1-p-tolyl-1H-pyrazol-5-yl)-3-(5-(2-(3-methylureido)pyridin-4-yloxy)quinolin-8-yl)urea] | 12.3 | −25.5 | −28.0
1.7 | 2.5 | 10.7 | 1.2 | 139 | CNC(=O)Nc1nccc(Oc2ccc(NC(=O)Nc3cc(C(C)(C)C)nn3-c3ccc(CO)cc3)c(Cl)c2Cl)n1 [Example 25, 1-(4-(4-(3-(3-tert-Butyl-1-(4-(hydroxymethyl)phenyl)-1H-pyrazol-5-yl)ureido)-2,3-dichlorophenoxy)pyrimidin-2-yl)-3-methylurea] | 10.8 | −3.5 | 58.6
0.3 | 4.6 | 14.1 | 1.8 | 33.6 | COc1ccc(-n2nc(C(C)(C)C)cc2NC(=O)Nc2ccc(Oc3ccnc(NC(=O)N4CC[C@H](N(C)C)C4)c3)c(Cl)c2Cl)cc1 [Example 82, (S)-N-(4-(4-(3-(3-tert-butyl-1-(4-methoxyphenyl)-1H-pyrazol-5-yl)ureido)-2,3-dichlorophenoxy)pyridin-2-yl)-3-(dimethylamino) pyrrolidine-1-carboxamide] | 2.1 | −13.2 | 20.5
4.8 | 3.1 | 50.1 | 1 | 200 | CC(C)(C)c1cc(NC(=O)Nc2ccc(Oc3ccnc(NC(=O)NC4CC4)c3)c(Cl)c2Cl)n(-c2ccc(CO)cc2)n1 [Example 55, 1-(4-(4-(3-(3-tert-butyl-1-(4-hydroxymethylphenyl)-1H-pyrazol-5-yl)ureido)-2,3-dichlorophenoxy)pyridin-2-yl)-3-cyclopropylurea] | 1.7 | −15.0 | 49.2
4.7 | 48.4 | 29.4 | 6.7 | > 16300 | CNC(=O)Nc1cc(COc2ccc(NC(=O)Nc3cc(C(C)(C)C)nn3-c3ccc(OC)cc3)c(Cl)c2Cl)ccn1 [Example 18, 1-(3-tert-Butyl-1-(4-methoxyphenyl)-1H-pyrazol-5-yl)-3-(2,3-dichloro-4-((2-(3-methylureido)pyridin-4-yl)methoxy)phenyl)urea] | 343 | 39.5 | −4.6
